For data set [1], the system named is Aspergillus niger ATCC 16888. Briefly: Antifungal activity, radial growth technique on PDA medium. Type of data set: cell-based. The following applies: ATCC16888, read-out: IC50, inhibition of the growth of A. niger. The protocol: The antifungal activity was evaluated against two fungi, Aspergillus niger ATCC 16888 and Botrytis cinerea ATCC 11542, isolated and identified with ITS gene (GenBank accession number AY373852, A. S. Taha et al., BioResources 2019, 14, 6025-6046). The bioassay was evaluated using the radial growth technique method (P. Wayne, Reference method for broth dilution antifungal susceptibility testing of yeasts, approved standard. CLSI document M27-A2, 2002). Both fungal strains were cultivated aerobically on PDA medium at 25° C. for 14 days. The fungal spores were collected with sterile cotton swabs and suspended in sterile water, and the concentrations were adjusted according to the requirements of the antifungal assays to be performed.
Flavonoids oligomers were dissolved in DMSO ([…]), then transferred into sterilized warm PDA medium (40 to 45° C.) to achieve a final concentration of 1.0 mg/mL, 0.6 mg/mL and 0.4 mg/mL, before immediately pouring into 24-well sterile plastic microtitration plates containing flat-bottomed wells (Corning Incorporated, costar). […]
From a 7-day-old colony, the fungus with discs of 9 mm diameter was transferred to the center of the treated PDA plates and controls. […] All the tested concentrations, as well as positive and negative controls, were measured in triplicate.

A further data set deals with blood glucose. Nature of the data set: Glycemic response of mice after starch gavage. Type of data set: in vivo. As to the method:
A 10% (w/v) starch solution was prepared by addition of distilled water to reagent grade corn starch and heating the solution it in a boiling water bath for about 15 minutes until it was completely gelatinized. 8-week-old male wild-type C57BL/6J mice were fasted overnight (free water intake), and weighed the next day. The tail of the mice was trimmed and the blood was taken for measurement of fasting blood glucose concentration with a Roche blood glucose meter. Feeding method a, “YX2+Starch”: Luteolin dimer (2a) was gavaged as a 2 mg/mL water solution, at the dosage level of 20 mg/kg body weight of the animal. Thirty minutes later, the 10% (w/v) starch solution was gavaged at 1 g/kg body weight. Feeding method b, “Starch (+YX2)”: Luteolin dimer (2a) was mixed with starch at 0.2% ratio by dried weight and mixed with water (1:9 by weight) to give a slurry labelled as Starch (+YX2) (FIG. 41). The mixture was gavaged to mice at with 1 g/kg body weight. In comparison, luteolin (1a or YX1) was mixed with starch at 0.2% by weight. The resulting mixture was further mixed with water to give 10% starch slurry labelled as starch (+YX1) (FIG. 41). The mice were gavaged with 1 g/kg body weight. The blood glucose values were measured at 30, 60, 90, 120 minutes to make the blood glucose curve, GraphPad draws the blood glucose response curve after meal, and the area under the curve was calculated.

Another data set concerns the target T1, α-amylase (Sus scrofa, UniProt P00690).
T1 sequence (P00690 16-511): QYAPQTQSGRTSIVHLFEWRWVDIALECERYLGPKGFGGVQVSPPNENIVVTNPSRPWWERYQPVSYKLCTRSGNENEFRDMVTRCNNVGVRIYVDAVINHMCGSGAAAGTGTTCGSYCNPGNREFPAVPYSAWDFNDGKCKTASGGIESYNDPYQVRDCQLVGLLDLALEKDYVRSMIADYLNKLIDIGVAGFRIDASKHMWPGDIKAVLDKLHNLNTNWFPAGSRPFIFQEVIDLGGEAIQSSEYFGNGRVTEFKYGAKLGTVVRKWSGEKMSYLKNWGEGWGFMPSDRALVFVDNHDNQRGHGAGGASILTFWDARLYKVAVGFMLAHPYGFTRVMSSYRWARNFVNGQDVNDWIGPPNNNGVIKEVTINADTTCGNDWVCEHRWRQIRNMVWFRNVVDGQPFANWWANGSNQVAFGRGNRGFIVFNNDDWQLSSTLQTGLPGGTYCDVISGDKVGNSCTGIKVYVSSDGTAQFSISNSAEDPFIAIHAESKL
Nature of the data set: High-throughput starch hydrolase inhibition assay (turbidity, corn starch). Type of data set: biochemical. As to the method:
(§1) The inhibitory activity of each fraction obtained on α-amylase and α-glucosidase were determined using the turbidity measurement according to a reported method (Liu, Song, Wang, & Huang, 2011, Journal of agricultural and food chemistry 2011 Vol. 59 Issue 18 Pages 9756-9762). Corn starch (20 mg/mL) was suspended in sodium phosphate buffer (0.1 M, pH 6.9) and gelatinized at 100° C. for 2.5 min. The inhibitor solution was diluted in buffer to appropriate concentrations. Acarbose was used as a positive control and a reference standard. α-amylase solution (2 U/mL in buffer, 20 μL) or α-glucosidase solution (1×10−2 U/mL in buffer) was pre-incubated with inhibitor solution (20 μL) with series of concentrations in a 96-well microplate and kept at 37° C. for 15 min. The reaction was initiated by injecting 60 μL of the gelatinized corn starch solution. The turbidity changes were recorded at 660 nm every minute for 2 h using a Synergy HT microplate reader (Biotek Instruments Inc., Winooski, VT, USA). The inhibition percentage was calculated using Equation 10.
(§2) Inhibition (%)=(AUCsample−AUCcontrol)/AUCsample×100% (Equation 10)
(§3) Where AUCsample is the area under the inhibitory curve and AUCcontrol is the area under the curve negative control. The IC50 can be defined as the concentration of an inhibitor that produces 50% inhibition of enzyme activity under a specified assay condition. It was obtained from interpolation of percentage of inhibition against inhibitor concentration curve. In order to avoid run-to-run error due to fluctuation of enzymatic activity, the acarbose equivalent (AE) was used to express the inhibitory activity of sample based on the following equation:
(§4) AE of a sample=IC50 of acarbose/IC50 of a sample (Equation 11)

A further data set deals with α-glucosidase. The data set is described as above. Format: biochemical. As to the method:
as §1, §2, §3, §4

Data set [2] in a line: Solubility in water (observation). Format: physicochemical. The note with it: in water or slightly basic aqueous solution.
The nature of data set [3]: Determination of pKa values by 13C NMR spectroscopy under argon. Format: physicochemical. The protocol:
Luteolin (200 mg) was added in the three-necks round bottle flask fitted with a pH meter under argon (FIG. 12). Degassed water (20 mL) was added with stirring. To the solution, degassed aqueous KOH solution was injected through a syringe to adjust the pH. Aliquots (500 μL) of samples at a given pH value were transferred to 5 mm NMR tubes (Armar Chemicals, Switzerland). To the same NMR tube, deuterium oxide (D20, 5.0 μL) was added introduced for deuterium lock and a DMSO-d6 solution encapsulated in capillary tube (FIG. 12) was placed in the tube as the external standard for (at 2.50 ppm for CD3SOCD3, H. E. Gottlieb, V. Kotlyar & A. Nudelman, J. Org. Chem. 1997, 62, 7512-7515). The spectra were recorded and analyzed with MestReNova (Mestrelab research, version 5.2.5-4119). The resulting sigmoidal curve was subjected to nonlinear curve fitting using Prism® (GraphPad, version 5.0b and 5.0f). The dissociation constant pKa was calculated using the Henderson-Hasselback equation (Equation 1-4).
Where LH4, LH3^−, LH2^2−, LH^3− and L^4− are the species of luteolin in fully protonated form, first deprotonated, second deprotonated, third deprotonated 100% deprotonated form.
The chemical shift of the carbons in luteolin is dependent on the relative concentrations of the conjugate pair. For a solution at pH within pKa1 range, and the species in solution is ˜100% protonated (LH4), and the chemical shifts are that of the protonated species, δlow−1. For a solution at a higher pH the species in solution is first deprotonated (LH3^−), and the chemical shifts are that of the deprotonated species, δhigh−1.
Equation 7-8 were applied to determine the mole fraction of conjugate pair from chemical shift of a specific carbon. The assignment of ^13C NMR of luteolin was further confirmed by HSQC and HMBC methods with 2D correlation with ^1H NMR.

For data set [4] the following is noted: literature (Electrochim. Acta 2013); cited from earlier work.
[5] abbreviates: 0.2% mixture of compound in starch, gavaged at 1 g/kg body weight.

Molecules are shown by their SMILES.

What is called IC50 is the point on the concentration scale where inhibition reaches its midpoint.

For the compound `O=c1cc(-c2ccc(O)c(O)c2-c2c(O)cc3oc(-c4ccc(O)c(O)c4)cc(=O)c3c2O)oc2cc(O)cc(O)c12` [Compound 2a, 6-(6-(5,7-dihydroxy-4-oxo-4H-chromen-2-yl)-2,3-dihydroxyphenyl)-2-(3,4-dihydroxyphenyl)-5,7-dihydroxy-4H-chromen-4-one], in data set [1], the IC50 is 860 nM. Also, the glycemic response result in the data set on blood glucose (20 mg/kg by gavage 30 minutes before starch at 1 g/kg body weight (curve YX2+starch)) is given as “no glycemic response”; in the data set on blood glucose (setting [5]), “comparable to that of the mice fed only with same dose of starch”; in the data set on blood glucose (mice fed only with compound at 20 mg/kg body weight, no starch), “did not lead to glycemic response”. In addition, the “activity in inhibiting α-amylase compared with acarbose” value on α-amylase was “comparable”. Further, the “activity in inhibiting α-glucosidase compared with acarbose” value in the data set on α-glucosidase is on record as “comparable”.
For `O=c1cc(-c2ccc(O)c(O)c2-c2c(O)cc3oc(-c4ccc(O)cc4)cc(=O)c3c2O)oc2cc(O)cc(O)c12` [Compound 2b, 6-(6-(5,7-dihydroxy-4-oxo-4H-chromen-2-yl)-2,3-dihydroxyphenyl)-5,7-dihydroxy-2-(4-hydroxyphenyl)-4H-chromen-4-one], the “activity in inhibiting α-amylase compared with acarbose” value on α-amylase was “even higher”. Besides, the “activity in inhibiting α-glucosidase compared with acarbose” value with α-glucosidase was “even higher”.
As for `O=c1cc(-c2ccc(O)c(O)c2-c2c(O)cc3oc(-c4ccc(O)c(O)c4-c4c(O)cc5oc(-c6ccc(O)c(O)c6)cc(=O)c5c4O)cc(=O)c3c2O)oc2cc(O)cc(O)c12` [Compound 3a, 6-(6-(5,7-dihydroxy-4-oxo-4H-chromen-2-yl)-2,3-dihydroxyphenyl)-2-(2-(2-(3,4-dihydroxyphenyl)-5,7-dihydroxy-4-oxo-4H-chromen-6-yl)-3,4-dihydroxyphenyl)-5,7-dihydroxy-4H-chromen-4-one], in data set [1], the IC50 came to 960 nM.
With `O=c1cc(-c2ccc(O)c(O)c2)oc2cc(O)cc(O)c12` [luteolin], the solubility result in data set [2] is “poor solubility”. Further, the pKa3 in data set [3] (C(3′)-OH) was found to be 12.78. In data set [3] (C(4′)-OH), this compound registered a pKa2 of 8.93. Also, the pKa4 in data set [3] (C(5)-OH) worked out at 13.03. Further, in data set [3] (C(7)-OH, first deprotonation), the pKa1 was 8.00. Further, in data set [4], the “pKa1, literature values” is ~6.0. Besides, the glycemic response result with blood glucose (setting [5]) is “almost the same as that of the mice fed only with same dosage of starch”. Moreover, the “activity in inhibiting α-amylase compared with acarbose” value at α-amylase is recorded as “no activity”.

(Values after patent US20240122894A1, “METHODS TO SYNTHESIZE FLAVONOID DIMERS AND OLIGOMERS AND THE USE THEREOF” (National University of Singapore, priority 2020, published 2024).)
